We go through 39 molecules from patent US12590099B2, “Inhibitors of histone deacetylase useful for the treatment or prevention of HIV infection” (Merck Sharp & Dohme LLC, priority 2018, dated 2026).

This experiment addresses T1, HDAC6 (Homo sapiens, UniProt Q9UBN7).
T1 sequence (Q9UBN7 1-1215): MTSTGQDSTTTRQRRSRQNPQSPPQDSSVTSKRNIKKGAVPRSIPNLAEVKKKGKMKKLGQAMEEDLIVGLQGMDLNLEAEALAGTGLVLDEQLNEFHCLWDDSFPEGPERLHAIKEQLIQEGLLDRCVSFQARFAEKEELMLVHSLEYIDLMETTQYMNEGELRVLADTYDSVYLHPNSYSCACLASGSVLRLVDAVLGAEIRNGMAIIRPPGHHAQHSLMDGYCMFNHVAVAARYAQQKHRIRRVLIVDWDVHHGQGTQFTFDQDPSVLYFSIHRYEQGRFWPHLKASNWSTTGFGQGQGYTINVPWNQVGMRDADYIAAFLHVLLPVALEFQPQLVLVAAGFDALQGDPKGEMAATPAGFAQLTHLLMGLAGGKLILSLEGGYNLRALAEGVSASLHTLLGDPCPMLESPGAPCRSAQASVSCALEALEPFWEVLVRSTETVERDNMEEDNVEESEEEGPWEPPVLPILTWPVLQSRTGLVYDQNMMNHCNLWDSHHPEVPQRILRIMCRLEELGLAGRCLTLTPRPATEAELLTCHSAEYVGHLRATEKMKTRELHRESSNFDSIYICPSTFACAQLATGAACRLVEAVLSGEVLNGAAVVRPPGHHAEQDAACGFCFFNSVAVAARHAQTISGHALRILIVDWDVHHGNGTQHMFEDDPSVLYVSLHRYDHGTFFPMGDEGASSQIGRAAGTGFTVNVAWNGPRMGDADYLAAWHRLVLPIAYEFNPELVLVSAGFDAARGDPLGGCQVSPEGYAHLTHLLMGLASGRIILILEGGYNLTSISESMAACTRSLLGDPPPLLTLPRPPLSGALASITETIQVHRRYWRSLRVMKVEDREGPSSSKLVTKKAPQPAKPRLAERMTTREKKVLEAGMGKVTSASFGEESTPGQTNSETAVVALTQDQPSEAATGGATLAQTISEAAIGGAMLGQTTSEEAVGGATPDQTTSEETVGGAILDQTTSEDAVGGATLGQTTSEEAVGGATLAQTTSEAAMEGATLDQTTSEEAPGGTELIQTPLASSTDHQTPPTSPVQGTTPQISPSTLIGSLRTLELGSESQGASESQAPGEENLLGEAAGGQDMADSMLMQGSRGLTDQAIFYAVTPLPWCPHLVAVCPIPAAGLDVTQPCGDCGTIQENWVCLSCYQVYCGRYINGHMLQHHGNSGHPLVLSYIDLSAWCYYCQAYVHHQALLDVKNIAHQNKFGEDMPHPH
The experiment is described as follows: Human HDAC enzyme inhibitor Fluor-de-Lys assay, HDAC6. The experiment is classed as biochemical.
Regarding `CCC(=O)CCCCC[C@H](NC(=O)[C@H]1CC[C@]2(CC1)OC(=O)c1ncccc12)c1ncc(-c2cc3ccccc3nc2OC)[nH]1` [Compound 141], the concentration for half-maximal inhibition (IC50) is 1.49 µM.

Turning to `CCC(=O)CCCCC[C@H](NC(=O)[C@H]1CC12CCN(CC)CC2)c1ncc(-c2ccc3c(=O)n(C(C)C)ccc3c2)[nH]1` [Compound 126], the IC50 turned out to be 18.1 µM.

Consider `CCC(=O)CCCCC[C@H](NC(=O)C1=NOC2(CCN(C)CC2)C1)c1ncc(-c2cc3ccc(=O)n(C)c3cc2OC)o1` [Compound 193], for which the half-inhibitory concentration (IC50) is more than 0.9 µM.

Turning to `COc1cc2nc(C)ccc2cc1-c1cnc([C@H](CCCCCC(=O)CC2CC2)NC(=O)[C@H]2CC23CCN(C)CC3)o1` [Compound 195, (1S)—N-{(1S)-8-cyclopropyl-1-[5-(7-methoxy-2-methylquinolin-6-yl)-1,3-oxazol-2-yl]-7-oxooctyl}-6-methyl-6-azaspiro[2.5]octane-1-carboxamide], the IC50 was 21.5 µM.

Molecule `CCC(=O)CCCCC[C@H](NC(=O)[C@H]1CC12CCN(C)CC2)c1ncc(-c2ccc3nc(CC)sc3c2)[nH]1` [Compound 149] came in with a concentration for half-maximal inhibition (IC50) of 3.66 µM.

The molecule `CCC(=O)CCCCC[C@H](NC(=O)[C@H]1CC12CCN(C)CC2)c1ncc(-c2ccc(C3CC3)nc2)[nH]1` [Compound 139] returned a half-maximal inhibitory concentration (IC50) of 4.45 µM.

For `CCC(=O)CCCCC[C@H](NC(=O)[C@H]1CC12CCN(C)CC2)c1ncc(-c2ccc3nc(N(C)C)ccc3c2)[nH]1` [Compound 66, (1S)—N-[(1S)-1-{5-[2-(dimethylamino)quinolin-6-yl]-1H-imidazol-2-yl}-7-oxononyl]-6-methyl-6-azaspiro[2.5]octane-1-carboxamide], the IC50 is more than 0.45 µM.

In the case of `CCC(=O)CCCCC[C@H](NC(=O)[C@H]1CC12CCN(C)CC2)c1ncc(-c2ccc3ncc(Cl)cc3c2)[nH]1` [Compound 140], the concentration for half-maximal inhibition (IC50) is 0.611 µM.

In turn, `CCC(=O)CCCCC[C@H](NC(=O)C1CN(C)C1)c1[nH]c(-c2ccc(F)cc2)nc1Br` [Compound 65, N-{(1S)-1-[4-bromo-2-(4-fluorophenyl)-1H-imidazol-5-yl]-7-oxononyl}-1-methylazetidine-3-carboxamide] came in with a half-maximal inhibitory concentration (IC50) of more than 45 µM.

Consider `CN1CCC2(CC1)C[C@@H]2C(=O)N[C@@H](CCCCCC(=O)CC(F)(F)F)c1ncc(-c2ccc(F)cc2)[nH]1` [Compound 68], for which the half-maximal inhibitory concentration (IC50) worked out at 6.81 µM.

`CCC(=O)CCCCC[C@H](NC(=O)C1CC2(CCN(C)CC2)C1)c1ncc(-c2ccc3nn(C)cc3c2)[nH]1` [Compound 145] showed a 50% inhibitory concentration (IC50) of 5.76 µM.

Regarding `C=CCN1CCC2(CC1)C[C@@H]2C(=O)N[C@@H](CCCCCC(=O)CC)c1ncc(-c2cccc3c2C2CCC3N2CC=C)[nH]1` (stereo partly drawn) [Compound 180, (1S)—N-{(1S)-7-oxo-1-[5-(9-prop-2-en-1-yl-1,2,3,4-tetrahydro-1,4-epiminonaphthalen-5-yl)-1H-imidazol-2-yl]nonyl}-6-prop-2-en-1-yl-6-azaspiro[2.5]octane-1-carboxamide], half-maximal inhibition (IC50) was put at 2.12 µM.

As to `CCC(=O)CCCCC[C@H](NC(=O)C1=NOC2(CCN(C)CC2)C1)c1ncc(-c2ccc3nn(C)cc3c2)[nH]1` [Compound 154], the IC50 was determined as 18.1 µM.

On to `CCC(=O)CCCCC[C@H](NC(=O)C1CC12CCN(C)C(C)(C)C2)c1ncc(-c2ccc3nc(C)ccc3c2)[nH]1` (single isomer, unassigned) [Compound 130], for which it took 2.12 µM to reach half-maximal inhibition (IC50).

In turn, `CCC(=O)CCCCC[C@H](NC(=O)C1CC12CCN(C)C(C)(C)C2)c1ncc(-c2ccc3nc(C)ccc3c2)[nH]1` (single isomer, unassigned) [Compound 132] came in with an IC50 of 3.68 µM.

Consider `CCC(=O)CCCCC[C@H](NC(=O)C1(C)CC12CCN(C(C)C)CC2)c1ncc(-c2ccc3nc(C)ccc3c2)[nH]1` (single isomer, unassigned) [Compound 152, (1S or 1R)-1-methyl-6-(1-methylethyl)-N-{(1S)-1-[5-(2-methylquinolin-6-yl)-1H-imidazol-2-yl]-7-oxononyl}-6-azaspiro[2.5]octane-1-carboxamide], for which the concentration for half-maximal inhibition (IC50) was 19.2 µM.

`CCC(=O)CCCCC[C@H](NC(=O)C1=NOC2(CCN(C(C)C)CC2)C1)c1ncc(-c2ccc3nc(C4CC4)ccc3c2)o1` [Compound 136] came in with a concentration for half-maximal inhibition (IC50) of more than 4.5 µM.

`CCC(=O)CCCCC[C@H](NC(=O)[C@H]1CC12CCN(CC)CC2)c1ncc(-c2ccc3c(=O)n(C4CC4)ccc3c2)[nH]1` [Compound 150]: the IC50 amounted to 7.05 µM.

Consider `CCC(=O)CCCCC[C@H](NC(=O)C1CC12CCN(C)C(C)(C)C2)c1ncc(-c2ccc3nc(C)ccc3c2)[nH]1` (single isomer, unassigned) [Compound 131], for which 2.28 µM corresponded to half-maximal inhibition (IC50).

`CCC(=O)CCCCC[C@H](N)c1ncc(-c2cc3ccc(C)nc3cc2OC)[nH]1` [Compound 209, (S)-9-amino-9-(5-(7-methoxy-2-methylquinolin-6-yl)-1H-imidazol-2-yl)nonan-3-one] came in with a concentration for half-maximal inhibition (IC50) of more than 0.9 µM.

With `CCC(=O)CCCCC[C@H](NC(=O)[C@H]1CC12CCN(C(C)C)CC2)c1ncc(-c2ccc3nc(C4CC4)ccc3c2)o1` [Compound 116], the half-maximal inhibitory concentration (IC50) came out at 4.73 µM.

Turning to `CCC(=O)CCCCC[C@H](NC(=O)[C@H]1CC12CCN(C)CC2)c1ncc(-c2ccc3nc(C4CC4)sc3c2)[nH]1` [Compound 146], the half-maximal inhibitory concentration (IC50) was 7.73 µM.

In the case of `CCC(=O)CCCCC[C@H](NC(=O)C1=NOC2(CCN(C)CC2)C1)c1ncc(-c2cc3ccc(C)nc3cc2OC)o1` [Compound 196], half-maximal inhibition (IC50) was put at 0.759 µM.

With `CCC(=O)CCCCC[C@H](NC(=O)[C@@]1(C)CC12CCN(C(C)C)CC2)c1ncc(-c2ccc3nc(C)ccc3c2)[nH]1` (single isomer, unassigned) [Compound 151, (1S or 1R)-1-methyl-6-(1-methylethyl)-N-{(1S)-1-[5-(2-methylquinolin-6-yl)-1H-imidazol-2-yl]-7-oxononyl}-6-azaspiro[2.5]octane-1-carboxamide], the half-inhibitory concentration (IC50) is 5.82 µM.

The molecule `CCC(=O)CCCCC[C@H](NC(=O)[C@H]1CC12CCN(C)CC2)c1ncc(-c2ccc3nc(C4CC4)ccc3c2)o1` [Compound 121] gave a 50% inhibitory concentration (IC50) of 4.81 µM.

In the case of `COc1cc2nc(C)ccc2cc1-c1cnc([C@H](CCCCCC(=O)CC2CCC2)NC(=O)[C@H]2CC23CCN(C)CC3)o1` [Compound 185], 36.4 µM corresponded to half-maximal inhibition (IC50).

`CCC(=O)CCCCC[C@H](NC(=O)[C@H]1CC12CCN(CC1CC1)CC2)c1ncc(-c2cc3ccc(=O)n(C)c3cc2OC)o1` [Compound 199] had an IC50 of 0.216 µM.

`CCC(=O)CCCCC[C@H](NC(=O)[C@H]1CC[C@]2(CC1)OC(=O)c1ncccc12)c1ncc(-c2ccc3nc(C4CC4)ccc3c2)o1` [Compound 122] yielded a concentration for half-maximal inhibition (IC50) of more than 45 µM.

`CCC(=O)CCCCC[C@H](NC(=O)[C@H]1CC12CCN(C)CC2)c1ncc(-c2ccc3nc(C)cc(Cl)c3c2)[nH]1` [Compound 174] registered an IC50 of 0.951 µM.

With `CCC(=O)CCCCC[C@H](NC(=O)[C@H]1CC12CCN(CC)CC2)c1ncc(-c2cc3nn(C)cc3cc2OC)o1` [Compound 189], the half-maximal inhibitory concentration (IC50) was 0.159 µM.

On to `CCC(=O)CCCCC[C@H](NC(=O)[C@H]1CC12CCN(C)CC2)c1ncc(-c2cc3ccc(=O)n(C)c3cc2OC)o1` [Compound 198], for which the IC50 came to 0.426 µM.

As to `CCC(=O)CCCCC[C@H](NC(=O)C1(CC(C)C)CC2(CN(C)C2)C1)c1ncc(-c2ccc3nc(C)ccc3c2)[nH]1` [Compound 157], the midpoint of inhibition, the IC50, lay at 8.53 µM.

`CCC(=O)CCCCC[C@H](NC(=O)C1=NOC2(CCN(C)CC2)C1)c1ncc(-c2cc3ccncc3nc2OC)o1` [Compound 216] showed an IC50 of 0.786 µM.

Molecule `CCC(=O)CCCCC[C@H](NC(=O)[C@H]1CC[C@]2(CC1)OC(=O)c1cccnc12)c1ncc(-c2ccc3nc(C4CC4)ccc3c2)o1` [Compound 123] registered a half-inhibitory concentration (IC50) of more than 15 µM.

On to `CCC(=O)CCCCC[C@H](NC(=O)[C@H]1CC12CCN(C)CC2)c1ncc(-c2ccc3nc(C4CC4)oc3c2)[nH]1` [Compound 160], for which the IC50 came to 10.4 µM.

Consider `CCC(=O)CCCCC[C@H](NC(=O)[C@H]1CC12CCN(CC)CC2)c1ncc(-c2ccc3c(=O)n(C4CC4)ccc3c2)o1` [Compound 153], for which the half-maximal inhibitory concentration (IC50) turned out to be 10.4 µM.

In turn, `CCC(=O)CCCCC[C@H](NC(=O)[C@H]1CC12CCN(C)CC2)c1nnc(-c2cc3ccc(C)nc3cc2OC)o1` [Compound 191] had an IC50 of 2.05 µM.

The molecule `CCC(=O)CCCCC[C@H](NC(=O)[C@H]1CC12CCN(C)CC2)c1ncc(-c2cc(OC)c3ccccc3n2)[nH]1` [Compound 170] displayed an IC50 of 0.923 µM.

Take `CCC(=O)CCCCC[C@H](NC(=O)[C@H]1CC12CCN(CC)CC2)c1ncc(-c2ccc3nc(C4CC4)ccc3c2)o1` [Compound 114]: 4.09 µM corresponded to half-maximal inhibition (IC50).

The IC50 is the concentration that inhibits the measured activity by half. The low end stands for inhibition by little substance, the high end for a need for much substance.
